Test results: US20170260178A1 (SPERO GYRASE, INC., priority 2012, published 2017)
Where two headings read alike, the source gives them in different places.

What was measured:
S. pyogenes (ATCC 51339) = experiment: Bacterial assay: MIC against S. pyogenes; format: cell-based, Streptococcus pyogenes; conditions: Streptococcus pyogenes, ATCC51339, read-out: minimal inhibitory concentration (MIC)
S. pneumoniae ATCC6301 = experiment: Mouse survival model (lung infection); format: in vivo; conditions: CD-1 mice
Description: Anaesthetised female CD-1 mice (18-22 g) were inoculated intranasally with approximately 10^6 cfus of S. pneumoniae ATCC6301 prepared from a fresh overnight culture by placing 50 μl of inoculum on the nares and allowing the mice to inhale. Compounds are administered as indicated at 24, 48 and 72 hours post inoculation and the mice monitored for survival for seven or nine days after infection. […] Similarly, when Compound 17 was dosed IV at 30 mg/kg 90% of mice survived at day seven.

S. aureus (ATCC 29213) = experiment: Bacterial assay: MIC against S. aureus; format: cell-based, Staphylococcus aureus; conditions: Staphylococcus aureus, ATCC29213, read-out: minimal inhibitory concentration (MIC)
[1] = system: H. influenzae (ATCC 49247); experiment: Bacterial assay: MIC against H. influenzae; format: cell-based; conditions: Haemophilus influenzae
[2] = ATCC49247, H. influenzae ATCC 49247, read-out: minimal inhibitory concentration (MIC)

| SMILES | MIC (S. pyogenes (ATCC 51339)) [µg/mL] | mice survived (S. pneumoniae ATCC6301; IV 30 mg/kg, at day seven) [%] | MIC (S. aureus (ATCC 29213)) [µg/mL] | MIC [1, 2] [µg/mL] | MIC ([1]; ATCC49247, read-out: minimal inhibitory concentration (MIC)) [µg/mL] | survival outcome (S. pneumoniae ATCC6301; 10 mg/kg) |
| --- | --- | --- | --- | --- | --- | --- |
| CCNC(=O)Nc1nc2cc(-c3cnc(C(C)O)nc3)cc(-c3ccccn3)c2s1 (centres unmarked) [Compound 17, 1-ethyl-3-[5-[2-(1-hydroxyethyl)pyrimidin-5-yl]-7-(2-pyridyl)-1,3-benzothiazol-2-yl]urea] | ≤ 1 | 90 | ≤ 1 | ≤ 2 |  |  |
| CCNC(=O)Nc1nc2cc(-c3cnc(C(C)O)nc3)cc(-c3cc(OCCOC)ccn3)c2s1 (centres unmarked) [Compound 92, 1-ethyl-3-[5-[2-(1-hydroxyethyl)pyrimidin-5-yl]-7-[4-(2-methoxyethoxy)-2-pyridyl]-1,3-benzothiazol-2-yl]urea] | ≤ 1 |  | ≤ 1 | ≤ 2 |  |  |
| CCNC(=O)Nc1nc2cc(-c3ccc(C(C)O)nc3)cc(-c3ccccn3)c2s1 (centres unmarked) [Compound 95, 1-ethyl-3-[5-[6-(1-hydroxyethyl)-3-pyridyl]-7-(2-pyridyl)-1,3-benzothiazol-2-yl]urea] | ≤ 1 |  | ≤ 1 | ≤ 2 |  |  |
| CCNC(=O)Nc1nc2cc(-c3ccc(C(O)C(F)(F)F)nc3)cc(-c3ccccn3)c2s1 (centres unmarked) [Compound 96, 1-ethyl-3-[7-(2-pyridyl)-5-[6-(2,2,2-trifluoro-1-hydroxy-ethyl)-3-pyridyl]-1,3-benzothiazol-2-yl]urea] | ≤ 1 |  | ≤ 1 | ≤ 2 |  |  |
| CCNC(=O)Nc1nc2cc(-c3cnc(C(C)O)nc3)cc(-c3cc(CP(=O)(OCC)OCC)ccn3)c2s1 (centres unmarked) [Compound 100, 1-[7-[4-(diethoxyphosphorylmethyl)-2-pyridyl]-5-[2-(1-hydroxyethyl)pyrimidin-5-yl]-1,3-benzothiazol-2-yl]-3-ethyl-urea] | ≤ 1 |  | ≤ 1 |  | ≤ 2 |  |
| CCNC(=O)Nc1nc2cc(-c3cnc(C(C)O)nc3)cc(-c3cc(OCC4CCCO4)ccn3)c2s1 (centres unmarked) [Compound 104, 1-ethyl-3-[5-[2-(1-hydroxyethyl)pyrimidin-5-yl]-7-[4-(tetrahydrofuran-2-ylmethoxy)-2-pyridyl]-1,3-benzothiazol-2-yl]urea] | ≤ 1 |  | ≤ 1 | ≤ 2 |  |  |
| CCNC(=O)Nc1nc2cc(-c3cnc(C4(O)CCOCC4)nc3)cc(-c3ccccn3)c2s1 [Compound 111, 1-ethyl-3-[5-[2-(4-hydroxytetrahydropyran-4-yl)pyrimidin-5-yl]-7-(2-pyridyl)-1,3-benzothiazol-2-yl]urea] | ≤ 1 |  | ≤ 1 | ≤ 2 |  |  |
| CCNC(=O)Nc1nc2cc(-c3cnc(C4(O)COC4)nc3)cc(-c3ccccn3)c2s1 [Compound 113, 1-ethyl-3-[5-[2-(3-hydroxyoxetan-3-yl)pyrimidin-5-yl]-7-(2-pyridyl)-1,3-benzothiazol-2-yl]urea] | ≤ 1 |  | ≤ 1 | ≤ 2 |  |  |
| CCNC(=O)Nc1nc2cc(-c3cnc(C(C)(C)O)nc3)cc(-c3cc(CN4CC(C)(OC)C4)ccn3)c2s1 [Compound 114, 1-ethyl-3-[5-[2-(1-hydroxy-1-methyl-ethyl)pyrimidin-5-yl]-7-[4-[(3-methoxy-3-methyl-azetidin-1-yl)methyl]-2-pyridyl]-1,3-benzothiazol-2-yl]urea] | ≤ 1 |  | ≤ 1 | ≤ 2 |  |  |
| CCNC(=O)Nc1nc2cc(-c3cnc(C(C)O)nc3)cc(-c3ncccn3)c2s1 (centres unmarked) [Compound 115, 1-ethyl-3-[5-[2-(1-hydroxyethyl)pyrimidin-5-yl]-7-pyrimidin-2-yl-1,3-benzothiazol-2-yl]urea] | ≤ 1 |  | ≤ 1 | ≤ 2 |  |  |
| CCNC(=O)Nc1nc2cc(-c3ccc(C(O)C(F)(F)F)nc3)cc(-c3cc(OCCN4CCOCC4)ccn3)c2s1 (centres unmarked) [Compound 116, 1-ethyl-3-[7-[4-(2-morpholinoethoxy)-2-pyridyl]-5-[6-(2,2,2-trifluoro-1-hydroxy-ethyl)-3-pyridyl]-1,3-benzothiazol-2-yl]urea] | ≤ 1 |  | ≤ 1 | ≤ 2 |  |  |
| CCNC(=O)Nc1nc2cc(-c3cnc(C4(O)CCCC4)nc3)cc(-c3ccccn3)c2s1 [Compound 119, 1-ethyl-3-[5-[2-(1-hydroxycyclopentyl)pyrimidin-5-yl]-7-(2-pyridyl)-1,3-benzothiazol-2-yl]urea] | ≤ 1 |  | ≤ 1 | ≤ 2 |  |  |
| CCNC(=O)Nc1nc2cc(-c3cnc([C@@H](C)O)nc3)cc(-c3cc(CN4CCOCC4)ccn3)c2s1 [Compound 121, 1-ethyl-3-[5-[2-[(1R)-1-hydroxyethyl]pyrimidin-5-yl]-7-[4-(morpholinomethyl)-2-pyridyl]-1,3-benzothiazol-2-yl]urea] | ≤ 1 |  | ≤ 1 | ≤ 2 |  |  |
| CCNC(=O)Nc1nc2cc(-c3cnc([C@H](C)O)nc3)cc(-c3cc(CN4CCOCC4)ccn3)c2s1 [Compound 122, 1-ethyl-3-[5-[2-[(1S)-1-hydroxyethyl]pyrimidin-5-yl]-7-[4-(morpholinomethyl)-2-pyridyl]-1,3-benzothiazol-2-yl]urea] | ≤ 1 |  | ≤ 1 | ≤ 2 |  |  |
| CCNC(=O)Nc1nc2cc(-c3cnc(C4(O)CCOCC4)nc3)cc(-c3cc(CN4CCOCC4)ccn3)c2s1 [Compound 125, 1-ethyl-3-[5-[2-(4-hydroxytetrahydropyran-4-yl)pyrimidin-5-yl]-7-[4-(morpholinomethyl)-2-pyridyl]-1,3-benzothiazol-2-yl]urea] | ≤ 1 |  | ≤ 1 | ≤ 2 |  |  |
| CCNC(=O)Nc1nc2cc(-c3cnc(C4(O)CCSCC4)nc3)cc(-c3ccccn3)c2s1 [Compound 127, 1-ethyl-3-[5-[2-(4-hydroxytetrahydrothiopyran-4-yl)pyrimidin-5-yl]-7-(2-pyridyl)-1,3-benzothiazol-2-yl]urea] | ≤ 1 |  | ≤ 1 | ≤ 2 |  |  |
| CCNC(=O)Nc1nc2cc(-c3cnc(C4(O)COC4)nc3)cc(-c3cc(CN4CCOCC4)ccn3)c2s1 [Compound 154, 1-ethyl-3-[5-[2-(3-hydroxyoxetan-3-yl)pyrimidin-5-yl]-7-[4-(morpholinomethyl)-2-pyridyl]-1,3-benzothiazol-2-yl]urea] | ≤ 1 |  | ≤ 1 | ≤ 2 |  |  |
| CCNC(=O)Nc1nc2cc(-c3ccc(C(O)C(F)(F)F)nc3)cc(-c3cc(CN4CC(OC)C4)ccn3)c2s1 (centres unmarked) [Compound 155, 1-ethyl-3-[7-[4-[(3-methoxyazetidin-1-yl)methyl]-2-pyridyl]-5-[6-[2,2,2-trifluoro-1-hydroxy-ethyl]-3-pyridyl]-1,3-benzothiazol-2-yl]urea] | ≤ 1 |  | ≤ 1 | ≤ 2 |  |  |
| CCNC(=O)Nc1nc2cc(-c3cnc(C(C)(O)CO)nc3)cc(-c3ccccn3)c2s1 (centres unmarked) [Compound 157, 1-[5-[2-[1,2-dihydroxy-1-methyl-ethyl]pyrimidin-5-yl]-7-(2-pyridyl)-1,3-benzothiazol-2-yl]-3-ethyl-urea] | ≤ 1 |  | ≤ 1 | ≤ 2 |  |  |
| CCNC(=O)Nc1nc2cc(-c3cnc(C(C)O)nc3)cc(-c3ccc(C)cn3)c2s1 (centres unmarked) [Compound 158, 1-ethyl-3-[5-[2-[1-hydroxyethyl]pyrimidin-5-yl]-7-(5-methyl-2-pyridyl)-1,3-benzothiazol-2-yl]urea] | ≤ 1 |  | ≤ 1 | ≤ 2 |  |  |
| CCNC(=O)Nc1nc2cc(-c3cnc(C(C)O)nc3)cc(-c3ccc(C(C)O)cn3)c2s1 (centres unmarked) [Compound 168, 1-ethyl-3-[7-[5-(1-hydroxyethyl)-2-pyridyl]-5-[2-(1-hydroxyethyl)pyrimidin-5-yl]-1,3-benzothiazol-2-yl]urea] | ≤ 1 |  | ≤ 1 | ≤ 2 |  |  |
| CCNC(=O)Nc1nc2cc(-c3cnc(C4(O)CCS(=O)(=O)CC4)nc3)cc(-c3ccccn3)c2s1 [Compound 173, 1-ethyl-3-[5-[2-(4-hydroxy-1,1-dioxo-thian-4-yl)pyrimidin-5-yl]-7-(2-pyridyl)-1,3-benzothiazol-2-yl]urea] | ≤ 1 |  | ≤ 1 | ≤ 2 |  |  |
| CCNC(=O)Nc1nc2cc(-c3cnc(C(C)(C)O)nc3)cc(-c3cc(CN4CC(OCC)C4)ccn3)c2s1 [Compound 175, 1-[7-[4-[(3-ethoxyazetidin-1-yl)methyl]-2-pyridyl]-5-[2-(1-hydroxy-1-methyl-ethyl)pyrimidin-5-yl]-1,3-benzothiazol-2-yl]-3-ethyl-urea] | ≤ 1 |  | ≤ 1 | ≤ 2 |  |  |
| CCNC(=O)Nc1nc2cc(-c3cnc(C(C)O)nc3)cc(-c3nccc(OC)c3F)c2s1 (centres unmarked) [Compound 178, 1-ethyl-3-[7-(3-fluoro-4-methoxy-2-pyridyl)-5-[2-[1-hydroxyethyl]pyrimidin-5-yl]-1,3-benzothiazol-2-yl]urea] | ≤ 1 |  | ≤ 1 | ≤ 2 |  |  |
| CCNC(=O)Nc1nc2cc(-c3cnc(C(C)O)nc3)cc(-c3cc(CN4CCSCC4)ccn3)c2s1 (centres unmarked) [Compound 185, 1-ethyl-3-[5-[2-[1-hydroxyethyl]pyrimidin-5-yl]-7-[4-(thiomorpholinomethyl)-2-pyridyl]-1,3-benzothiazol-2-yl]urea] | ≤ 1 |  | ≤ 1 | ≤ 2 |  |  |
| CCNC(=O)Nc1nc2cc(-c3cnc(C(C)(C)O)nc3)cc(-c3cc(CN4CCSCC4)ccn3)c2s1 [Compound 187, 1-ethyl-3-[5-[2-(1-hydroxy-1-methyl-ethyl)pyrimidin-5-yl]-7-[4-(thiomorpholinomethyl)-2-pyridyl]-1,3-benzothiazol-2-yl]urea] | ≤ 1 |  | ≤ 1 | ≤ 2 |  |  |
| CC(=O)NC[C@H]1CN(c2ccc(N3CCOCC3)c(F)c2)C(=O)O1 [Linezolid, reference compound] |  |  |  |  |  | dead by day six |
